One assay deals with S180 sarcomas. The format is in vivo, Kunming mice.
The subject of assay [1] is human gastric cancer cell line MKN. Particulars: mouse, in vivo.
Assay [2] relates to human liver cancer cell line QGY. Particulars: mouse, in vivo.
For another assay, the system named is mice colon carcinoma C26. Particulars: mouse, in vivo, 30 mg/kg.
Another assay has as its system Lewis lung carcinoma. Particulars: mouse, in vivo.

Each structure is given as a SMILES string. Values joined by “and” are separate entries in the source; they are usually repeats but may differ in a detail not shown here. Identical values can stand only once. Like-named read-outs stand apart in the source and are kept apart here. Marks after values point to notes of the source that are not given here.

Turning to `O=P1(N(CCCl)CCCl)NCCCO1` (centres unmarked) [cyclophosphamide], the inhibition rate % was 45.02*** % in the assay with S180 sarcomas (15.0 mg/kg ip × 7) and 84.24*** % in the assay on S180 sarcomas (30.0 mg/kg ip × 7). Moreover, the “tumor weight (g) x ± SD” value in the assay on S180 sarcomas (15.0 mg/kg ip × 7) amounted to 1.71 ± 0.25 g; with S180 sarcomas (30.0 mg/kg ip × 7), 0.49 ± 0.12 g. The inhibition ratio % in assay [1] is 88.11*** % and 89.06*** %; in assay [2], 88.79*** % and 89.05*** %; in the assay with mice colon carcinoma C26, 91.02*** % and 79.12*** %; with mice colon carcinoma C26 (ip) it was 91.90*** % and 81.35*** %; in the assay on Lewis lung carcinoma it was 88.32*** % and 88.49*** %. Besides, the “tumor weight x ± SD” value in assay [1] is 0.17 ± 0.15 and 0.14 ± 0.05; in assay [2], 0.25 ± 0.14 and 0.22 ± 0.08; in the assay with mice colon carcinoma C26 it was 0.22 ± 0.06 and 0.19 ± 0.06; in the assay on mice colon carcinoma C26 (ip) it was 0.22 ± 0.06 and 0.18 ± 0.06; in the assay with Lewis lung carcinoma it was 0.25 ± 0.07 and 0.29 ± 0.07.
